Among the test systems are UACC-62 melanoma; MDA-MB-435; M14 melanoma; ACHN renal; SK-MEL-28 melanoma; CAKI-1 renal; HS 578T breast; UACC-257 melanoma; OVCAR-8 ovarian; NCI-H23 lung.
Assay in all cases: NCI anticancer screen, dose series, 48 h

Where “and” joins values, the source holds several entries; their conditions need not be identical. Equal entries are not always repeated.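 Values below derive from 48-hour exposures of cells grown in 96-well plates, with endpoints linearly interpolated between the two concentrations bracketing the appropriate inhibition level. GI50: concentration for 50% inhibition of growth. The concentration for full growth arrest is given as TGI.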 Bounds are passed on as bounds.

`O=S1(=O)CS(=O)(=O)OCCO1`: the GI50 in the assay on UACC-62 melanoma is 12 µM; in the assay on MDA-MB-435 it was 72.9 µM; with M14 melanoma, over 78.5 µM; in the assay with ACHN renal, 36.3 µM; in the assay on SK-MEL-28 melanoma, over 93.9 µM; in the assay on CAKI-1 renal it was 33.2 µM. Also, the GI50 was over 63.8 µM in the assay with UACC-257 melanoma and over 77.7 µM in the assay on OVCAR-8 ovarian. Besides, the TGI in the assay with UACC-62 melanoma was > 78.7 µM and 20.9 µM; in the assay on MDA-MB-435 it was 94.4 µM; with M14 melanoma, 162 µM; in the assay on ACHN renal it was 56.5 µM; with SK-MEL-28 melanoma, 300 µM; in the assay on CAKI-1 renal it was > 92.9 µM and 143 µM. The TGI with HS 578T breast is 176 µM; in the assay on UACC-257 melanoma, 153 µM; in the assay with OVCAR-8 ovarian it was 235 µM; in the assay on NCI-H23 lung it was > 81.5 µM and 113 µM.
With `O=C1C(=O)c2ccccc2C(O)=C1CCCc1ccc(C2CCCCCC2)cc1`, the GI50 is 0.718 µM with UACC-62 melanoma; 0.608 µM in the assay on MDA-MB-435; 1.86 µM with M14 melanoma; 0.703 µM with ACHN renal; 5.04 µM in the assay on SK-MEL-28 melanoma; 0.432 µM in the assay on CAKI-1 renal. Moreover, the GI50 in the assay on HS 578T breast was 4.84 µM; with UACC-257 melanoma it was 0.662 µM; in the assay on OVCAR-8 ovarian it was 1.62 µM; in the assay with NCI-H23 lung, 0.649 µM. In addition, the TGI is 21.2 µM in the assay with UACC-62 melanoma; 48.2 µM in the assay on MDA-MB-435; 21 µM with M14 melanoma; over 100 µM with ACHN renal; over 93.3 µM in the assay with SK-MEL-28 melanoma; 26 µM with CAKI-1 renal. The TGI in the assay on HS 578T breast is 57.8 µM; with UACC-257 melanoma, over 23.3 µM; in the assay with OVCAR-8 ovarian it was 41.7 µM; in the assay with NCI-H23 lung it was 15.8 µM.
As to `COc1cc(N2CCN(C(C)C)CC2)ccc1Nc1nc(Nc2cccc(F)c2C(=O)O)c2cc[nH]c2n1`, the GI50 with UACC-62 melanoma, with MDA-MB-435, with M14 melanoma, in the assay with ACHN renal, with SK-MEL-28 melanoma and in the assay on CAKI-1 renal was over 25 µM throughout. Also, the GI50 in the assay with HS 578T breast, in the assay with UACC-257 melanoma, with OVCAR-8 ovarian and in the assay on NCI-H23 lung was over 25 µM in each case. Also, the TGI in the assay with UACC-62 melanoma, in the assay on MDA-MB-435, with M14 melanoma, in the assay on ACHN renal, with SK-MEL-28 melanoma and in the assay with CAKI-1 renal was over 25 µM throughout. Besides, the TGI in the assay on HS 578T breast, in the assay with UACC-257 melanoma, in the assay with OVCAR-8 ovarian and in the assay on NCI-H23 lung was over 25 µM in each case.
On to `Cc1[nH]c(-c2nc3ccccc3[nH]2)c(C)c1C(=O)NC(C)C1CCCCC1` (stereo not drawn), for which the GI50 with UACC-62 melanoma was 6.95 µM; in the assay on MDA-MB-435, 2.29 µM; in the assay on M14 melanoma, 3.28 µM; with ACHN renal it was 14.4 µM; in the assay on SK-MEL-28 melanoma it was 10.4 µM; with CAKI-1 renal, 10.4 µM. Moreover, the GI50 was 8.88 µM in the assay on HS 578T breast, 13.2 µM in the assay on UACC-257 melanoma, 16.5 µM with OVCAR-8 ovarian and 12.6 µM in the assay on NCI-H23 lung. Also, the TGI came to 21.6 µM in the assay with UACC-62 melanoma; 5.85 µM with MDA-MB-435; 17.8 µM in the assay on M14 melanoma; 30.2 µM with ACHN renal; 23.5 µM in the assay with SK-MEL-28 melanoma; 22.2 µM in the assay with CAKI-1 renal. The TGI with HS 578T breast is 30.9 µM; in the assay on UACC-257 melanoma it was 33.3 µM; in the assay on OVCAR-8 ovarian it was 39.5 µM; with NCI-H23 lung it was 31.5 µM.
With `C/C(=N\N=C(\[Se])N(C)C)c1ccccn1`, the TGI with UACC-62 melanoma came to 2.4 µM; in the assay with MDA-MB-435, 16.6 µM; in the assay with M14 melanoma, 3.24 µM; in the assay with ACHN renal, 13.2 µM; in the assay with SK-MEL-28 melanoma, 18.9 µM; in the assay on CAKI-1 renal, 16.1 µM. In addition, the TGI in the assay on HS 578T breast stood at 40.6 µM; with UACC-257 melanoma, 0.162 µM; in the assay with OVCAR-8 ovarian, 6.46 µM; with NCI-H23 lung, 11 µM.
`CCN(CC)CCN(Cc1ccc(F)cc1)c1ccc(CO)c(Cl)c1`: the GI50 was 6.07 µM with UACC-62 melanoma; 23.5 µM with MDA-MB-435; 17.2 µM in the assay with M14 melanoma; 38.2 µM with ACHN renal; 17.2 µM with SK-MEL-28 melanoma; 1.85 µM in the assay on CAKI-1 renal. Also, the GI50 was 48.3 µM in the assay on HS 578T breast, 12 µM in the assay with UACC-257 melanoma, 5.37 µM in the assay on OVCAR-8 ovarian and 35.4 µM in the assay on NCI-H23 lung. The TGI is 20.8 µM in the assay on UACC-62 melanoma; 74.7 µM in the assay on MDA-MB-435; 35.2 µM in the assay with M14 melanoma; over 100 µM in the assay with ACHN renal; 32.9 µM in the assay on SK-MEL-28 melanoma; 17.3 µM with CAKI-1 renal. Further, the TGI with HS 578T breast was over 100 µM; with UACC-257 melanoma, 27.7 µM; in the assay on OVCAR-8 ovarian, 75.4 µM; with NCI-H23 lung, over 100 µM.
As to `COc1cc(-c2cc(/C=C/C(=O)c3ccc(Cl)c(Cl)c3)[nH]n2)cc(OC)c1OC`, the GI50 in the assay on UACC-62 melanoma was 18.8 µM; in the assay on MDA-MB-435, 5.65 µM; with M14 melanoma, 18.2 µM; in the assay with ACHN renal, 21.4 µM; in the assay with SK-MEL-28 melanoma, 18.1 µM; in the assay on CAKI-1 renal, 16.9 µM. The GI50 in the assay with HS 578T breast was 16.6 µM; in the assay on UACC-257 melanoma, 16.3 µM; in the assay on OVCAR-8 ovarian it was 6.3 µM; in the assay with NCI-H23 lung it was 23.4 µM. Moreover, the TGI in the assay with UACC-62 melanoma was over 100 µM; in the assay on MDA-MB-435 it was over 100 µM; with M14 melanoma, over 100 µM; in the assay on ACHN renal it was over 100 µM; in the assay on SK-MEL-28 melanoma it was 66 µM; with CAKI-1 renal, over 100 µM. The TGI is over 100 µM in the assay with HS 578T breast, 74 µM with UACC-257 melanoma, 34 µM in the assay on OVCAR-8 ovarian and over 100 µM in the assay with NCI-H23 lung.
Consider `Cc1cc2nc3cc(C)c(N)cc3[n+](-c3ccccc3)c2cc1N`, for which the GI50 with UACC-62 melanoma was 6.19 µM; in the assay on MDA-MB-435 it was 4.68 µM; in the assay with M14 melanoma it was 21.2 µM; with ACHN renal, over 68.2 µM; in the assay with SK-MEL-28 melanoma, 15.2 µM; in the assay on CAKI-1 renal, over 100 µM. Also, the GI50 with HS 578T breast was 10.6 µM; in the assay with UACC-257 melanoma, 1.85 µM; with OVCAR-8 ovarian it was 2.83 µM; in the assay with NCI-H23 lung it was 2.77 µM. Further, the TGI in the assay with UACC-62 melanoma was 30.7 µM; in the assay on MDA-MB-435, 67 µM; in the assay on M14 melanoma, over 100 µM; in the assay with ACHN renal, over 100 µM; in the assay with SK-MEL-28 melanoma it was 79.3 µM; in the assay with CAKI-1 renal, over 100 µM. The TGI in the assay with HS 578T breast is over 100 µM; in the assay with UACC-257 melanoma, 12 µM; with OVCAR-8 ovarian, over 100 µM; in the assay on NCI-H23 lung it was over 63.5 µM.
On to `CN1CCN(Cc2ccc(NC(=O)c3cncc(C#Cc4cncc5nccnc45)c3)cc2C(F)(F)F)CC1`, for which the GI50 in the assay with UACC-62 melanoma is 1.55 µM; in the assay on MDA-MB-435 it was 1.34 µM; in the assay on M14 melanoma, 0.83 µM; in the assay with ACHN renal it was 1.57 µM; in the assay with SK-MEL-28 melanoma, 1.66 µM; in the assay with CAKI-1 renal, 2.18 µM. Further, the GI50 in the assay with HS 578T breast is 1.13 µM; in the assay with UACC-257 melanoma, 1.48 µM; in the assay with OVCAR-8 ovarian, 3.71 µM; in the assay with NCI-H23 lung, 2.16 µM. Further, the TGI was determined as 7.21 µM in the assay with UACC-62 melanoma; 7.3 µM in the assay on MDA-MB-435; 4.33 µM in the assay on M14 melanoma; 6.48 µM in the assay on ACHN renal; 5.97 µM in the assay with SK-MEL-28 melanoma; 9.09 µM in the assay on CAKI-1 renal. Further, the TGI with HS 578T breast turned out to be 7.89 µM; with UACC-257 melanoma, 6.27 µM; in the assay with OVCAR-8 ovarian it was 24.1 µM; in the assay with NCI-H23 lung, 11 µM.
Consider `C[n+]1c(-c2ccc(/C=N/NC(=O)c3ccc(C(=O)N/N=C/c4ccc(-c5cn6ccccc6[n+]5C)cc4)cc3)cc2)cn2ccccc21`, for which the GI50 with UACC-62 melanoma was 177 µM; in the assay with MDA-MB-435 it was over 1000 µM; with M14 melanoma it was 623 µM; in the assay on ACHN renal, 752 µM; with SK-MEL-28 melanoma, 258 µM; in the assay on CAKI-1 renal, over 1000 µM. Also, the GI50 is over 1000 µM in the assay with HS 578T breast, 182 µM in the assay with UACC-257 melanoma, 184 µM with OVCAR-8 ovarian and 297 µM in the assay on NCI-H23 lung. The TGI in the assay on UACC-62 melanoma is 316 µM; with MDA-MB-435, over 1000 µM; in the assay with M14 melanoma it was over 1000 µM; in the assay with ACHN renal, over 1000 µM; with SK-MEL-28 melanoma, 406 µM; with CAKI-1 renal, over 1000 µM. For the same molecule, the TGI in the assay with HS 578T breast was over 1000 µM; with UACC-257 melanoma, 97.5 µM and 322 µM; in the assay on OVCAR-8 ovarian it was 323 µM; with NCI-H23 lung, 717 µM.
Take `N=C(N)c1ccc(NCCOCCNc2ccc(C(=N)N)cc2)cc1`: the GI50 is 29.2 µM in the assay with UACC-62 melanoma; 81.3 µM with MDA-MB-435; 55.4 µM in the assay on M14 melanoma; 36.1 µM in the assay on ACHN renal; 73.3 µM in the assay on SK-MEL-28 melanoma; over 100 µM in the assay on CAKI-1 renal. Besides, the GI50 was 52.8 µM with HS 578T breast, over 100 µM in the assay on UACC-257 melanoma, 34.4 µM in the assay on OVCAR-8 ovarian and 6.91 µM in the assay with NCI-H23 lung. Besides, the TGI in the assay with UACC-62 melanoma, in the assay on MDA-MB-435, in the assay on M14 melanoma, in the assay with ACHN renal, in the assay on SK-MEL-28 melanoma and in the assay with CAKI-1 renal was over 100 µM in each case. For the same molecule, the TGI in the assay with HS 578T breast, in the assay on UACC-257 melanoma, in the assay with OVCAR-8 ovarian and in the assay on NCI-H23 lung was over 100 µM in each case.
Take `COC(=O)C(CBr)CBr`: the TGI in the assay on UACC-62 melanoma came out at 18.1 µM; in the assay with MDA-MB-435 it was 10.1 µM; in the assay on M14 melanoma, 4.72 µM; with ACHN renal, 10.1 µM; with SK-MEL-28 melanoma, 9.36 µM; in the assay with CAKI-1 renal, 10 µM. Further, the TGI in the assay on HS 578T breast was found to be 19.4 µM; in the assay on UACC-257 melanoma, 12.5 µM; with OVCAR-8 ovarian it was 8.83 µM; in the assay on NCI-H23 lung it was 19.5 µM.

Values taken from PubChem BioAssay (NCI).
